Measured values reported in patent US20080176936A1, “Classes of Compounds that Interact with Integrins” (priority 2005, published 2008).

Experiments:
αllbβ3 integrin = biological target: T1, αllbβ3 integrin (Homo sapiens, UniProt P05106+P08514); assay: ELISA: inhibition of binding of αllbβ3 integrin membrane preparation to coated extracellular matrix protein; conditions: human platelet membrane preparation
T1 construct: Human platelet membrane preparations were used as a source of αllbβ3 integrin; from tissue; host or cells: human platelets (membrane preparation)
T1 sequence (P08514 32-887 limits assumed): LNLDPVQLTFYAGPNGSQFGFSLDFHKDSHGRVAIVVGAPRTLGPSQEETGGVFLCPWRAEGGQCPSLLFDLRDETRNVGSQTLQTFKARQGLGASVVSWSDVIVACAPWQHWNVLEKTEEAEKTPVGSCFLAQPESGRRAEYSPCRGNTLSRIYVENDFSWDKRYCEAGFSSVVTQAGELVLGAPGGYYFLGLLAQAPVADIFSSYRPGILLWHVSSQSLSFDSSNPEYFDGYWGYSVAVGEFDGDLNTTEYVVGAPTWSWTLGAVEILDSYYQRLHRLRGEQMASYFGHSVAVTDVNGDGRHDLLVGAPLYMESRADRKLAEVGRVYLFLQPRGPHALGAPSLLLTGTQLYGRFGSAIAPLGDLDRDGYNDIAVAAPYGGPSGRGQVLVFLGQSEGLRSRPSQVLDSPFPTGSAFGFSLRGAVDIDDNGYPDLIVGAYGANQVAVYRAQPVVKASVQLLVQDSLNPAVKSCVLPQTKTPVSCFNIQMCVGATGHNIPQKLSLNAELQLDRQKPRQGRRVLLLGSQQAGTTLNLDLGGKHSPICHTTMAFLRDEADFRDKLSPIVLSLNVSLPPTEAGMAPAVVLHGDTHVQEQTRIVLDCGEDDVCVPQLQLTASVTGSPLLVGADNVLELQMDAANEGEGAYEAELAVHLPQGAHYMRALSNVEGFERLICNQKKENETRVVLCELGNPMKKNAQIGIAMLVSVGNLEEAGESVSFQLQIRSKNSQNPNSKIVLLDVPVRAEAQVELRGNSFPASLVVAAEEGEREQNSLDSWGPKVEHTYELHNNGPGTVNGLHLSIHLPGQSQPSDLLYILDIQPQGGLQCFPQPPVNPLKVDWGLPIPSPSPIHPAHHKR
T1 sequence (P08514 891-1039 partner limits assumed): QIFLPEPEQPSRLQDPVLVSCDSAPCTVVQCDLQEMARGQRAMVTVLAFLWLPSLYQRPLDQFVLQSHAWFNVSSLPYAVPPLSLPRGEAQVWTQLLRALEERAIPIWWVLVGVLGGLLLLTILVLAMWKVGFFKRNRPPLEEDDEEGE
T1 sequence (P05106 27-788): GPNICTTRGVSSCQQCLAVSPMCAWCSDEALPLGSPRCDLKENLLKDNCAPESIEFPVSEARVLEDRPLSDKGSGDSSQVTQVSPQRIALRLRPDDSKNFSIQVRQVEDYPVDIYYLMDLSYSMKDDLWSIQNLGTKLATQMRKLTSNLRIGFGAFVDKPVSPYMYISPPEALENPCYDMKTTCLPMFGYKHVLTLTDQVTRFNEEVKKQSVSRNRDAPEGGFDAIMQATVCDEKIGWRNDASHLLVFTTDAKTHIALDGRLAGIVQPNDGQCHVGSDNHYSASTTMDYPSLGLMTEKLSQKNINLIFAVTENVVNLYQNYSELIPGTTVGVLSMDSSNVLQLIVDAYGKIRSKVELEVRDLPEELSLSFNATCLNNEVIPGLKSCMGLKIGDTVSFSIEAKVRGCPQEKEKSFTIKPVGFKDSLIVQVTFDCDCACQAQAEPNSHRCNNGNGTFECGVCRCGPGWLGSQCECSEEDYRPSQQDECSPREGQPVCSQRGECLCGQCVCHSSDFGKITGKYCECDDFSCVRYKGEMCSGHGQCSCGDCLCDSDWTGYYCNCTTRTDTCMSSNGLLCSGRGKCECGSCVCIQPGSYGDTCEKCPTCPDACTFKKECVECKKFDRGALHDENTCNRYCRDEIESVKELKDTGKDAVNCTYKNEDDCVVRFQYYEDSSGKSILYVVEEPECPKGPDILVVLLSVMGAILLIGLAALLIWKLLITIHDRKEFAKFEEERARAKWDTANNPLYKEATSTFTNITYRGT
Method in brief: (§1)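 Wells were coated with fibrinogen or vitronectin (10 µg/well), and integrin binding was measured by ELISA. αIIbβ3 came from human platelet membranes and αVβ3 from WM-115 cells, each preincubated with compound. Bound integrin was detected with a rabbit anti-β3 antibody, an HRP secondary and a colorimetric readout.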

αVβ3 integrin = biological target: T2, αVβ3 integrin (Homo sapiens, UniProt P05106+P06756); assay: ELISA: inhibition of binding of αVβ3 integrin (source WM-115 cell line) to coated extracellular matrix protein; conditions: WM-115 cell line as integrin source
T2 construct: the cell line WM-115 was used as a source of αVβ3 integrin; endogenous in cells; host or cells: WM-115 cell line
T2 sequence (P06756 31-889 limits assumed): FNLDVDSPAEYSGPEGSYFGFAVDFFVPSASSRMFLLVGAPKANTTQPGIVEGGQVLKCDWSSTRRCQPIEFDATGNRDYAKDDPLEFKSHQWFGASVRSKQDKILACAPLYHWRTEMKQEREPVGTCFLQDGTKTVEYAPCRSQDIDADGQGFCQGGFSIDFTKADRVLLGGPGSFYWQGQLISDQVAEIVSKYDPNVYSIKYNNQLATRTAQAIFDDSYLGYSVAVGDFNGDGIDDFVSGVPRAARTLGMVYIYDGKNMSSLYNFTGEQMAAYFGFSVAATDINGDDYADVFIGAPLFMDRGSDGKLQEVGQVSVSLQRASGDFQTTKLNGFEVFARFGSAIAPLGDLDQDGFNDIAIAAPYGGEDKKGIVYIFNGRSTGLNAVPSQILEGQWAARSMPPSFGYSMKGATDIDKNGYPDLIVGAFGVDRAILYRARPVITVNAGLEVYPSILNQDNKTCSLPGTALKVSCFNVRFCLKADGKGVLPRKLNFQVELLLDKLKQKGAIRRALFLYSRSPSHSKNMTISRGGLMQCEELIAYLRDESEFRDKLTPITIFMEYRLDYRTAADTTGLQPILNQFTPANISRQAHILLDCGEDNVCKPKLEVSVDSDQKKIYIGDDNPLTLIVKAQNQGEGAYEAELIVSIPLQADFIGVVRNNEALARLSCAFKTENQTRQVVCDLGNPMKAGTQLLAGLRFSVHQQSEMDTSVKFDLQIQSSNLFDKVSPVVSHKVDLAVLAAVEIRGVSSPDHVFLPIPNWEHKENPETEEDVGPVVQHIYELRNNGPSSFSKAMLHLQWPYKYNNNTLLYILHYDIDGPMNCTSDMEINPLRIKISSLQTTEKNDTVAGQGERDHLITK
T2 sequence (P06756 891-1048 partner limits assumed): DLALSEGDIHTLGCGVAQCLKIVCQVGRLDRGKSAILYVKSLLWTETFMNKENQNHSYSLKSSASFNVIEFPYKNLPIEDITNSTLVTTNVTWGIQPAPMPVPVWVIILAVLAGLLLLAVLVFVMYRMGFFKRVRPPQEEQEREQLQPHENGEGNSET
T2 sequence (P05106 27-788): as the sequence (P05106 27-788) above
Method in brief: as §1

Row | Compound | INHIBITION @ 250 uM RECEPTOR allBb3 SUBSTRATE FIBRINOGEN (αllbβ3 integrin) | INHIBITION 250 uM RECEPTOR allBb3 SUBSTRATE VITRONECTIN (αllbβ3 integrin) | INHIBITION 250 uM RECEPTOR aVb3 SUBSTRATE FIBRINOGEN (αVβ3 integrin)
1 | CC(=O)NC1C(OCc2ccccc2)OC(COCc2cccc(N)c2)C(O)C1OCC(=O)O (single isomer, unassigned) [Compound 95] | − (0% to 35% inhibition at 250 micromolar) | ++ (61% to 80% inhibition at 250 micromolar) | − (0% to 35% inhibition at 250 micromolar)
2 | CCOC1OC(COCC(=O)O)C(O)C(OCc2ccccc2)C1NC(=O)CN (single isomer, unassigned) [Compound 116] | − (0% to 35% inhibition at 250 micromolar) | − (0% to 35% inhibition at 250 micromolar) | − (0% to 35% inhibition at 250 micromolar)
3 | Nc1cccc(COC2C(O)C(COCc3ccc(Br)cc3)OC(O)C2NC(=O)c2ccc(C(=O)O)cc2)c1 (single isomer, unassigned) [Compound 74] | − (0% to 35% inhibition at 250 micromolar) | +++ (81% to 100% inhibition at 250 micromolar) | − (0% to 35% inhibition at 250 micromolar)
4 | Nc1cccc(C(=O)NC2C(OCc3ccccc3)OC(CO)C(O)C2OCc2ccc(C(=O)O)cc2)c1 (single isomer, unassigned) [Compound 102] | − (0% to 35% inhibition at 250 micromolar) | +++ (81% to 100% inhibition at 250 micromolar) | +++ (81% to 100% inhibition at 250 micromolar)
5 | COC1OC(COCc2ccccc2)C(O)C(OCC(=O)O)C1NC(=O)c1cccc(N)c1 (single isomer, unassigned) [Compound 6] | − (0% to 35% inhibition at 250 micromolar) | +++ (81% to 100% inhibition at 250 micromolar) | +++ (81% to 100% inhibition at 250 micromolar)
6 | COCC1OC(OCc2ccccc2)C(NC(=O)c2ccc(C(=O)O)cc2)C(OCc2cccc(N)c2)C1O (single isomer, unassigned) [Compound 106] | + (36% to 60% inhibition at 250 micromolar) | +++ (81% to 100% inhibition at 250 micromolar) | − (0% to 35% inhibition at 250 micromolar)
7 | Nc1cccc(C(=O)N[C@H]2C(O)O[C@H](COCc3ccc(C(=O)O)cc3)[C@@H](O)[C@@H]2OCc2ccc(Br)cc2)c1 (single isomer, unassigned) [Compound 42] | + (36% to 60% inhibition at 250 micromolar) | +++ (81% to 100% inhibition at 250 micromolar) | − (0% to 35% inhibition at 250 micromolar)
8 | COC(=O)c1ccc(COC2C(O)C(COCc3ccccc3)OC(OC)C2NC(=O)CCNC(=N)N)cc1 (single isomer, unassigned) [Compound 13] | + (36% to 60% inhibition at 250 micromolar) | +++ (81% to 100% inhibition at 250 micromolar) | − (0% to 35% inhibition at 250 micromolar)
9 | COC(=O)c1ccc(COC2C(O)C(COCc3ccc(Br)cc3)OC(OC)C2NC(=O)CCNC(=N)N)cc1 (single isomer, unassigned) [Compound 17] | + (36% to 60% inhibition at 250 micromolar) | +++ (81% to 100% inhibition at 250 micromolar) | +++ (81% to 100% inhibition at 250 micromolar)
10 | CCOC1O[C@H](COCc2ccccc2)[C@@H](O)[C@H](OCC(=O)O)[C@H]1NC(=O)CCNC(=N)N (single isomer, unassigned) [Compound 49] | ++ (61% to 80% inhibition at 250 micromolar) | +++ (81% to 100% inhibition at 250 micromolar) | +++ (81% to 100% inhibition at 250 micromolar)
11 | Nc1cccc(COC2C(O)C(COCc3ccc(Br)cc3)OC(O)C2NC(=O)CCC(=O)O)c1 (single isomer, unassigned) [Compound 26] | + (36% to 60% inhibition at 250 micromolar) | +++ (81% to 100% inhibition at 250 micromolar) | ++ (61% to 80% inhibition at 250 micromolar)
12 | COC1OC(COCC(=O)O)C(O)C(OCc2ccccc2)C1NC(=O)CCCNC(=N)N (single isomer, unassigned) [Compound 125] | + (36% to 60% inhibition at 250 micromolar) | +++ (81% to 100% inhibition at 250 micromolar) | + (36% to 60% inhibition at 250 micromolar)
